# Assays:
# Assay type in all cases: in vivo
# Plutella xylostella = test: Pesticidal test against Plutella xylostella (cabbage leaf dip); conditions: foliar, 144 h, 2-stage larvae, examined after 6 days, 25° C., read-out: pesticidal rate; for pest or weed control at 1 ppm: concentration 1 ppm; for pest or weed control at 10 ppm: concentration 10 ppm
# Procedure: (§1) Pesticidal Test against Plutella xylostella A piece of a cabbage leaf was immersed for 30 seconds in a chemical solution in which a test compound had been prepared at a predetermined concentration, and air-dried, and then put into a 7 cm polyethylene cup having a filter paper laid on the bottom thereof, and 2-stage larvae of Plutella xylostella were released. They were left to stand in a thermostatic chamber at 25° C., and the numbers of the living pests and the dead pests were examined after 6 days. The test was carried out with five larvae per group in two replicates. Further, the above compound (A) was used as a comparative compound.
# Spodoptera litura = test: Pesticidal test against Spodoptera litura (cabbage leaf dip); conditions: foliar, 144 h, 2-stage larvae, examined after 6 days, 25° C., read-out: pesticidal rate; for pest or weed control at 1 ppm: concentration 1 ppm; for pest or weed control at 10 ppm: concentration 10 ppm
# Procedure: as §1, with “Spodoptera litura” for “Plutella xylostella”, “following” for “above”, “(A) disclosed in the pamphlet of International Publication WO 2005/073165” for “(A)”
# Laodelphax striatellus = test: Pesticidal test against Laodelphax striatellus (rice seedling spray); conditions: 144 h, concentration 100 ppm, 3-stage larvae, examined after 6 days, 25° C., read-out: pesticidal rate
# Procedure: Pesticidal Test against Laodelphax striatellus
# 2.5 ml of an acetone solution in which a test compound had been prepared at a predetermined concentration was sprayed on rice seedlings, air-dried, and then put into a glass tube having a diameter of 3 cm and a height of 13 cm, having water therein, and 3-stage larvae of Laodelphax striatellus were released and the tube was capped. They were left to stand in a thermostatic chamber at 25° C., and the numbers of the living pests and the dead pests were examined after 6 days. The test was carried out with ten larvae per group in two replicates.
Compound,pest or weed control at 1 ppm (Plutella xylostella) [%],pest or weed control at 1 ppm (Spodoptera litura) [%],pest or weed control at 100 ppm (Laodelphax striatellus) [%],pest or weed control at 10 ppm (Plutella xylostella) [%],pest or weed control at 10 ppm (Spodoptera litura) [%]
N#Cc1ccc(C(=O)Nc2cc(C(=O)Nc3c(Cl)cc(C(F)(C(F)(F)F)C(F)(F)F)cc3C(F)(F)F)ccc2C#N)cc1 [1-491],≥ 70,≥ 70,≥ 70,,
"N#Cc1ccc(C(=O)Nc2c(Br)cc(C(F)(C(F)(F)F)C(F)(F)F)cc2C(F)(F)F)cc1NC(=O)c1ccccc1 [1-627, 3-benzamide-N-(2-bromo-4-(perfluoropropan-2-yl)-6-(trifluoromethyl)phenyl)-4-cyanobenzamide]",≥ 70,≥ 70,≥ 70,,
"CN(C(=O)c1ccc(C#N)cc1)c1cc(C(=O)Nc2c(Cl)cc(C(F)(C(F)(F)F)C(F)(F)F)cc2C(F)(F)F)ccc1C#N [2-491, N-(2-chloro-4-(perfluoropropan-2-yl)-6-(trifluoromethyl)phenyl)-4-cyano-3-(4-cyano-N-methylbenzamide)benzamide]",≥ 70,≥ 70,≥ 70,,
N#Cc1cccc(C(=O)Nc2cccc(C(=O)Nc3c(Br)cc(C(F)(C(F)(F)F)C(F)(F)C(F)(F)F)cc3Br)c2)c1 (stereo not drawn) [6-45],≥ 70,≥ 70,≥ 70,,
O=C(Nc1c(Br)cc(C(F)(C(F)(F)F)C(F)(F)C(F)(F)F)cc1Br)c1cccc(NC(=O)c2cccnc2Cl)c1 (stereo not drawn) [6-57],≥ 70,≥ 70,≥ 70,,
O=C(Nc1cccc(C(=O)Nc2c(I)cc(C(F)(C(F)(F)F)C(F)(F)C(F)(F)F)cc2I)c1)c1ccccc1 (stereo not drawn) [6-71],≥ 70,≥ 70,≥ 70,,
"N#Cc1ccc(C(=O)Nc2cccc(C(=O)Nc3c(I)cc(C(F)(C(F)(F)F)C(F)(F)C(F)(F)F)cc3I)c2)cc1 (stereo not drawn) [6-79, 3-(4-cyanobenzamide)-N-(2,6-diiodo-4-(perfluorobutan-2-yl)phenyl)benzamide]",≥ 70,≥ 70,≥ 70,,
O=C(Nc1c(Cl)cc(C(F)(C(F)(F)F)C(F)(F)F)cc1C(F)(F)F)c1cccc(NC(=O)c2cccnc2Cl)c1 [6-147],≥ 70,≥ 70,≥ 70,,
O=C(Nc1cccc(C(=O)Nc2c(Br)cc(C(F)(C(F)(F)F)C(F)(F)F)cc2C(F)(F)F)c1)c1ccccc1 [6-268],≥ 70,≥ 70,≥ 70,,
O=C(Nc1c(Br)cc(C(F)(C(F)(F)F)C(F)(F)F)cc1C(F)(F)F)c1cccc(NC(=O)c2ccccc2F)c1 [6-269],,≥ 70,≥ 70,≥ 70,
O=C(Nc1cccc(C(=O)Nc2c(Br)cc(C(F)(C(F)(F)F)C(F)(F)F)cc2C(F)(F)F)c1)c1cccc(F)c1 [6-270],≥ 70,≥ 70,≥ 70,,
O=C(Nc1c(Br)cc(C(F)(C(F)(F)F)C(F)(F)F)cc1C(F)(F)F)c1cccc(NC(=O)c2c(F)cccc2F)c1 [6-290],≥ 70,≥ 70,≥ 70,,
O=C(Nc1c(Br)cc(C(F)(C(F)(F)F)C(F)(F)F)cc1C(F)(F)F)c1cccc(NC(=O)c2cccnc2Cl)c1 [6-304],≥ 70,≥ 70,≥ 70,,
O=C(Nc1c(Br)cc(C(F)(C(F)(F)F)C(F)(F)F)cc1C(F)(F)F)c1cccc(NC(=O)c2cccnc2I)c1 [6-306],≥ 70,≥ 70,≥ 70,,
O=C(Nc1cccc(C(=O)Nc2c(Br)cc(C(F)(C(F)(F)F)C(F)(F)F)cc2C(F)(F)F)c1)c1ccc(Cl)nc1 [6-311],,≥ 70,≥ 70,≥ 70,
O=C(Nc1c(I)cc(C(F)(C(F)(F)F)C(F)(F)F)cc1C(F)(F)F)c1cccc(NC(=O)c2ccccc2F)c1 [6-425],≥ 70,≥ 70,≥ 70,,
N#Cc1cccc(C(=O)Nc2cccc(C(=O)Nc3c(I)cc(C(F)(C(F)(F)F)C(F)(F)F)cc3C(F)(F)F)c2)c1 [6-444],≥ 70,≥ 70,≥ 70,,
N#Cc1ccc(C(=O)Nc2cccc(C(=O)Nc3c(I)cc(C(F)(C(F)(F)F)C(F)(F)F)cc3C(F)(F)F)c2)cc1 [6-445],≥ 70,≥ 70,≥ 70,,

Compound,pest or weed control at 1 ppm (Plutella xylostella) [%],pest or weed control at 1 ppm (Spodoptera litura) [%],pest or weed control at 100 ppm (Laodelphax striatellus) [%],pest or weed control at 10 ppm (Plutella xylostella) [%],pest or weed control at 10 ppm (Spodoptera litura) [%]
O=C(Nc1c(I)cc(C(F)(C(F)(F)F)C(F)(F)F)cc1C(F)(F)F)c1cccc(NC(=O)c2cccnc2Br)c1 [6-461],≥ 70,≥ 70,≥ 70,,
"O=C(Nc1cccc(C(=O)Nc2c(Br)cc(C(F)(C(F)(F)F)C(F)(F)F)cc2Br)c1F)c1cccnc1Cl [6-1140, 2-chloro-N-(3-(2,6-dibromo-4-(perfluoropropan-2-yl)phenylcarbamoyl)-2-fluorophenyl)nicotinamide]",≥ 70,≥ 70,≥ 70,,
O=C(Nc1cccc(C(=O)Nc2c(Br)cc(C(F)(C(F)(F)F)C(F)(F)C(F)(F)F)cc2Br)c1F)c1ccccc1F (stereo not drawn) [6-1183],≥ 70,≥ 70,≥ 70,,
CN(C(=O)c1ccccc1F)c1cccc(C(=O)Nc2c(I)cc(C(F)(C(F)(F)F)C(F)(F)F)cc2C(F)(F)F)c1 [7-425],≥ 70,≥ 70,,,
CN(C(=O)c1ccccc1)c1cccc(C(=O)Nc2c(C(F)(F)F)cc(C(F)(C(F)(F)F)C(F)(F)F)cc2C(F)(F)F)c1 [7-804],,≥ 70,,≥ 70,
CN(C(=O)c1cccc(C#N)c1)c1cccc(C(=O)Nc2c(C(F)(F)F)cc(C(F)(C(F)(F)F)C(F)(F)F)cc2C(F)(F)F)c1 [7-824],≥ 70,≥ 70,,,
CN(C(=O)c1ccc(C#N)cc1)c1cccc(C(=O)Nc2c(Cl)cc(C(F)(C(F)(F)F)C(F)(F)F)cc2Cl)c1F [7-969],≥ 70,≥ 70,,,
CN(C(=O)c1cccnc1Cl)c1cc(C(=O)Nc2c(Br)cc(C(F)(C(F)(F)F)C(F)(F)F)cc2C(F)(F)F)ccc1F [7-3384],≥ 70,≥ 70,,,
CN(C(=O)c1ccc(F)cc1)c1cccc(C(=O)Nc2c(I)cc(C(F)(C(F)(F)F)C(F)(F)C(F)(F)F)cc2I)c1 (stereo not drawn) [7-5905],≥ 70,≥ 70,,,
CN(C(=O)c1ccc(S(C)(=O)=O)cc1)c1cccc(C(=O)Nc2c(Br)cc(C(F)(C(F)(F)F)C(F)(F)F)cc2C(F)(F)F)c1 [7-5908],,,,≥ 70,≥ 70
COC(=O)c1cc(C#N)cc(C(=O)N(C)c2cccc(C(=O)Nc3c(Br)cc(C(F)(C(F)(F)F)C(F)(F)F)cc3C(F)(F)F)c2F)c1 [7-5910],≥ 70,≥ 70,,,
CN(C(=O)c1ccccc1)c1cccc(C(=O)Nc2c(Br)cc(C(F)(F)C(F)(F)F)cc2C(F)(F)F)c1 [7-5911],,,,≥ 70,≥ 70
CN(C(=O)c1cccc(NC(=O)c2ccccc2)c1)c1c(Br)cc(C(F)(C(F)(F)F)C(F)(F)F)cc1C(F)(F)F [8-268],≥ 70,≥ 70,,,
CN(C(=O)c1cccc(NC(=O)c2cccc(C#N)c2)c1)c1c(Br)cc(C(F)(C(F)(F)F)C(F)(F)F)cc1C(F)(F)F [8-288],≥ 70,≥ 70,,,
CN(C(=O)c1cccc(NC(=O)c2ccccc2)c1)c1c(C(F)(F)F)cc(C(F)(C(F)(F)F)C(F)(F)F)cc1C(F)(F)F [8-804],,≥ 70,,≥ 70,
CN(C(=O)c1cccc(NC(=O)c2cccc(C#N)c2)c1)c1c(C(F)(F)F)cc(C(F)(C(F)(F)F)C(F)(F)F)cc1C(F)(F)F [8-824],≥ 70,≥ 70,,,
"CN(C(=O)c1ccccc1F)c1nc(C(=O)Nc2c(Br)cc(C(F)(C(F)(F)F)C(F)(F)F)cc2C(F)(F)F)cs1 [27-628, N-(2-bromo-4-(perfluoropropan-2-yl)-6-(trifluoromethyl)phenyl)-2-(2-fluoro-N-methylbenzamide)thiazole-4-carboxamide]",,,,≥ 70,≥ 70
CN(C(=O)c1cccnc1Cl)c1nc(C(=O)Nc2c(Br)cc(C(F)(C(F)(F)F)C(F)(F)F)cc2C(F)(F)F)cs1 [27-663],,≥ 70,,≥ 70,

# From patent US8686044B2, “Amide derivative, pest control agent containing the amide derivative, and use of the amide derivative” (Mitsui Chemicals Agro, Inc., priority 2008, dated 2014)
